Measured values published in US20220356147A1, “COMPOUNDS AND METHODS FOR POTENTIATING COLISTIN ACTIVITY” (University of Notre Dame du Lac, priority 2019, published 2022).
Where two headings read alike, the source gives them in different places.

Columns and labels:
[1] = system: A. baumannii 4106 (AB4106); experiment: Broth microdilution, colistin potentiation; format: cell-based
In short: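 AB4106 (1.04×10^6 CFU/mL) and KPB9 (1.96×10^6 CFU/mL) cultured 4–6 h, diluted in CAMHB, pre-dosed with compound, then colistin serially 2-fold diluted; compound-free and compound-alone controls included. Incubated stationary at 37° C. MIC = lowest colistin concentration giving 90% growth inhibition versus untreated wells.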

4T1 cells = experiment: Cell line toxicity (MTT); format: cell-based; conditions: mouse, 18 h
Protocol: Cell line Toxicity: 4T1 cells (ATCC Manassas, Va.) were plated at a density of 1×10^4 cells/well in 96-well plates in Roswell Park Memorial Institute Media 1640 (RPMI)
(Gibco, Gaithersburg, MD) supplemented with 10% Fetal Bovine Serum (Gibco), 2 mM GlutaMAX (Gibco) and 50 μM 2-mercaptoethanol (Sigma Aldrich, St. Louis, Mo.) and incubated at 37 C under a 5% CO2 atmosphere in the dark for 18 h. Cell cultures were treated with serial dilutions of compounds in the presence or absence of 1 μg/mL colistin (3 replicates per condition) and incubated for an additional 18 hours. The following control conditions were used: media only (blank), 1% Triton X100 (0% cell viability), 0.5% DMSO (100% cell viability). Each condition was then treated with 10% volume of a 5 mg/mL solution of 3-(4,5-dimethylthiazol-2-yl)-2,5-diphenyltetrazolium bromide (MTT) (Sigma Aldrich) in sterile filtered 1X phosphate buffered saline (PBS) and incubated for 2 h. at 37 C in 5% CO2, after which the media was aspirated and the resulting formazan crystals were resuspended in 100 μL acidified (4 mM HCl) isopropanol. The 96-well plate was then read at 540 nm on a FLUOstar Optima (BMG Labtech Cary, NC) microplate reader. Cell viability was calculated as a percentage using the two previously mentioned controls.

AB 4106 [2] = experiment: Broth microdilution, standalone MIC of compound; format: cell-based, A. baumannii; conditions: Acinetobacter baumannii, 16 h, read-out: MIC of compound alone, AB 4106
In short: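 Bacteria grown 4–6 h in CAMHB, subcultured to 1.04×10^6 CFU/mL, then exposed to twofold serial dilutions of compound in CAMHB and incubated stationary at 37 C. MIC taken as lowest concentration giving 90% growth inhibition versus untreated wells.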

AB 4106 [3] = experiment: Time-kill curves with colistin; format: cell-based, A. baumannii; conditions: 5 μM compound + 0.5, 4 or 32 μg/mL colistin, FIG. 1
Protocol: (§1) Time—kill Curves: Strains were cultured overnight in CAMHB and subcultured to 1.04×10^6 CFU/mL for AB 4106 and 1.96×10^6 CFU/mL for KP B9 in fresh CAMHB. The subculture was then transferred to culture tubes in 3 mL aliquots, which were dosed with adjuvant, colistin, or adjuvant plus colistin. One aliquot was not dosed to serve as a control. All samples were then incubated at 37 C with shaking. At 2, 4, 6, 8, and 24-hour time points, 100 μL was taken from each sample and ten-fold diluted in CAMHB up to 7 times. 100 μL of diluted culture was plated on LB (Lennox) agar and incubated at 37 C overnight. The total number of bacterial colonies on each plate was determined using a SphereFlash colony counter (NEUTEC Group Inc.).

KP B9 = experiment: Time-kill curves with colistin; format: cell-based, K. pneumoniae; conditions: 5 μM compound + 0.5, 4 or 32 μg/mL colistin, FIG. 2
Protocol: as §1

AB 4119 = experiment: Colistin potentiation, colistin-resistant isolate panel; format: cell-based, A. baumannii; conditions: compound at 5 μM
AB 17978 mcr-1 = experiment: as above; format: cell-based, A. baumannii; conditions: compound at 5 μM
AB 3941 = experiment: as above; format: cell-based, A. baumannii; conditions: compound at 5 μM
[4] = system: A. baumannii, K. pneumoniae, and Escherichia coli; experiment: Earlier finding: suppression of colistin resistance by IMD-0354; format: cell-based; conditions: 5 μM (1.9 μg/mL) IMD-0354
AB 4112 = experiment: Colistin potentiation, colistin-resistant isolate panel; format: cell-based, A. baumannii; conditions: compound at 5 μM
AB 3942 = experiment: as above; format: cell-based, A. baumannii; conditions: compound at 5 μM
[5] = compound at 5 μM, colistin alone 2048 μg/mL

| Compound | Colistin MIC fold reduction, AB 4106 ([1]; compound at 1 μM) [fold] | Colistin MIC fold reduction, AB 4106 ([1]; compound at 3 μM) [fold] | Colistin MIC fold reduction, AB 4106 [1, 5] [fold] | no measurable toxicity up to (4T1 cells) [µM] | MIC (AB 4106 [2]; standalone, no colistin) [µM] | Time-kill: potentiation of colistin activity (AB 4106 [3]) | Time-kill: potentiation of colistin activity (KP B9) | Colistin MIC fold reduction, AB 4119 (AB 4119) | Colistin MIC fold reduction, AB 17978 mcr-1 (AB 17978 mcr-1) | Colistin MIC fold reduction, AB 3941 (AB 3941) | MIC (AB 4106 [2]) [µM] | reduction of the MIC of colistin [4] [fold] | Colistin MIC fold reduction, AB 4112 (AB 4112) | Colistin MIC fold reduction, AB 3942 (AB 3942) |
| --- | --- | --- | --- | --- | --- | --- | --- | --- | --- | --- | --- | --- | --- | --- |
| O=C(Nc1cc(Cl)cc(Cl)c1)c1cc(Cl)ccc1O [Compound 22] | 512 | 1024 | 1024 | > 200 | > 200 | significant potentiation of colistin activity | significant potentiation of colistin activity |  |  |  |  |  |  |  |
| O=C(Nc1cc(C(F)(F)F)cc(C(F)(F)F)c1)c1cc(Cl)ccc1O [IMD-0354, reference compound] | 256 | 512 | 1024 |  |  |  |  | (256) fold | (128) fold | (512) fold | 50 | ≥ 4096 | (1024) fold | (≥2048) fold |
